Experimental data taken from ChEMBL document CHEMBL5244211, “Current anti-diabetic agents and their molecular targets: A review” (Eur J Med Chem, 2018).

Assays:
[1] = target: T1, Tyrosine-protein phosphatase non-receptor type 1 (Homo sapiens, UniProt P18031); assay: Inhibition of PTP1B (unknown origin) using pNPP as substrate for 2 mins by spectroscopic analysis
T1 sequence (P18031 whole entry): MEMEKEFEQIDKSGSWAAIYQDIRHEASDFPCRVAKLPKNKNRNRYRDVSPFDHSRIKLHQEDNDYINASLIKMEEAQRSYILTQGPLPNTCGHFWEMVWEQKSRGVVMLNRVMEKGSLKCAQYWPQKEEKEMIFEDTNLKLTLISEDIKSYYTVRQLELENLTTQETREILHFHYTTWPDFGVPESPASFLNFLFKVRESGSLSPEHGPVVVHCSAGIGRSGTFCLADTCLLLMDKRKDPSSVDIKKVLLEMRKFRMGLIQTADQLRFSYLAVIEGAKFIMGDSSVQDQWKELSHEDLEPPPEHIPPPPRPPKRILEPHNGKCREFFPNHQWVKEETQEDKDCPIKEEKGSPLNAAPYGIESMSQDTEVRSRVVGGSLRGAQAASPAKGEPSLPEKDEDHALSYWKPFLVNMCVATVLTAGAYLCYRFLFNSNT

[2] = target: T1, Tyrosine-protein phosphatase non-receptor type 1; assay: Competitive inhibition of PTP1B (unknown origin) assessed as inhibition constant using pNPP as substrate by Michaelis-Menten based analysis
Homo sapiens = species on record: Homo sapiens; assay: Selectivity ratio of IC50 for inhibition of TC-PTP (unknown origin) to IC50 for inhibition of PTP1B (unknown origin)
[3] = target: T1, Tyrosine-protein phosphatase non-receptor type 1; assay: Inhibition of PTP1B (unknown origin)
Dipeptidyl peptidase 4 [4] = target: T2, Dipeptidyl peptidase 4 (Homo sapiens, UniProt P27487); assay: Inhibition of human recombinant DPP4 using H-Gly-Pro-AMC as substrate incubated for 10 mins by microplate reader analysis
T2 sequence (P27487 whole entry): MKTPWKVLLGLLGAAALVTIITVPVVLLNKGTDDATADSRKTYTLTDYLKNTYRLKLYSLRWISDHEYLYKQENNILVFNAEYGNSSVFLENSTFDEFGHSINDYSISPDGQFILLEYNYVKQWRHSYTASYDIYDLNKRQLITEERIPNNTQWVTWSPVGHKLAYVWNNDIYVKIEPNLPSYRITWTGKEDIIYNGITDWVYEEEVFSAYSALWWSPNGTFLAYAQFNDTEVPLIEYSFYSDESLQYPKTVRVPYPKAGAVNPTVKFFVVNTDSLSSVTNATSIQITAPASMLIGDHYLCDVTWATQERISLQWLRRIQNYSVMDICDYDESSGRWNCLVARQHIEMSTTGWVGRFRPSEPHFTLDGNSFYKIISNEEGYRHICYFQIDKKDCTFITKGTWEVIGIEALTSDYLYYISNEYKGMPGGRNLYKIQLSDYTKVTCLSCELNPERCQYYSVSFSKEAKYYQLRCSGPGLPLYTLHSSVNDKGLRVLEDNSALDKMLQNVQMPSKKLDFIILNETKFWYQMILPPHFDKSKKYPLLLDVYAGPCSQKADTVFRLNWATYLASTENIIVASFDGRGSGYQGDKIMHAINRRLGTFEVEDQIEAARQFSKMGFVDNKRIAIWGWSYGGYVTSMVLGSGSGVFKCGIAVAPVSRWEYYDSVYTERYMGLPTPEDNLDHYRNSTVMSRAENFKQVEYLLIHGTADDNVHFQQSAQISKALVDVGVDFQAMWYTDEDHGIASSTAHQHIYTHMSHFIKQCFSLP

[5] = target: T3, Free fatty acid receptor 4 (Homo sapiens, UniProt Q5NUL3); assay: Agonist activity at FFA4 (unknown origin) expressed in CHO-K1 cells by BRET assay; assay type: cell-based
T3 sequence (Q5NUL3 whole entry): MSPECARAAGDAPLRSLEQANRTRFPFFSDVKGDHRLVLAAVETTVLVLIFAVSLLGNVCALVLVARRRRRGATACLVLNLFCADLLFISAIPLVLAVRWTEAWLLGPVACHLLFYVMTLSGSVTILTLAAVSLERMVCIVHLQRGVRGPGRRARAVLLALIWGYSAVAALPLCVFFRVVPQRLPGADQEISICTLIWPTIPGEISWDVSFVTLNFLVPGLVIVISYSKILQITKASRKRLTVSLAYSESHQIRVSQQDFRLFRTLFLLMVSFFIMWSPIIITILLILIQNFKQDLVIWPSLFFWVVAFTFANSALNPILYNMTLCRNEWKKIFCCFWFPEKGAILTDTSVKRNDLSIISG

[6] = target: T4, Glucose-dependent insulinotropic receptor (Homo sapiens, UniProt Q8TDV5); assay: Agonist activity at human GPR119 expressed in CHO-K1 cells assessed as increase in intracellular cAMP level incubated for 5 mins by fluorescence analysis; assay type: cell-based
T4 sequence (Q8TDV5 whole entry): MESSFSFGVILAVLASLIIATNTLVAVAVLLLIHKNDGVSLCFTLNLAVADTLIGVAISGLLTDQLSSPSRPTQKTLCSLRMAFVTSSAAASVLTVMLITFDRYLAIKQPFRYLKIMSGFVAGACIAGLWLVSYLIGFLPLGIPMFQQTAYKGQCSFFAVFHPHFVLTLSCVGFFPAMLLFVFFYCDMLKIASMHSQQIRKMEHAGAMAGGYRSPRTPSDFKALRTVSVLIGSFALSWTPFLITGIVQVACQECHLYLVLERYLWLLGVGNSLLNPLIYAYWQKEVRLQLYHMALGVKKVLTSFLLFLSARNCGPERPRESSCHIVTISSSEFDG

Glucagon receptor = Glucagon receptor (Homo sapiens, UniProt P47871); assay: Inhibition of human GCGR receptor
Chain of Glucagon receptor (P47871 whole entry): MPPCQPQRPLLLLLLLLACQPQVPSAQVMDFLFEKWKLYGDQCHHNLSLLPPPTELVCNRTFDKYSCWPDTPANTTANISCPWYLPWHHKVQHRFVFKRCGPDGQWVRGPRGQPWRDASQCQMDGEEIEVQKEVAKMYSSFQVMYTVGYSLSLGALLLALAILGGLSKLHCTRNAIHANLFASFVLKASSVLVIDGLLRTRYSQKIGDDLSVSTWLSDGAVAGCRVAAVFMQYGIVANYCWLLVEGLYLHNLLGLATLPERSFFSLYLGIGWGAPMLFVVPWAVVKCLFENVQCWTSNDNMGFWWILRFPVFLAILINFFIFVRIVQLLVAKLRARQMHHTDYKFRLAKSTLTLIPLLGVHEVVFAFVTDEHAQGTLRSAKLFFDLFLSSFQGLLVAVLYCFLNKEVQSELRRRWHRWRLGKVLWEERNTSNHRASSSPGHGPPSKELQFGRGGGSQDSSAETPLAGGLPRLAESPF

Dipeptidyl peptidase 4 [7] = target: T2, Dipeptidyl peptidase 4; assay: Inhibition of DPP4 (unknown origin)
[8] = target: T5, Alpha-glucosidase (Saccharomyces cerevisiae S288c) (UniProt P53341+P38158+P07265); assay: Inhibition of Saccharomyces cerevisiae alpha-glucosidase assessed as dissociation rate constant (k1) using p-nitrophenol-alpha-D-glucopyranoside as substrate by Lineweaver-Burk plot analysis; assay type: protein assay
[9] = target: T5, Alpha-glucosidase (Saccharomyces cerevisiae S288c); assay: Inhibition of Saccharomyces cerevisiae alpha-glucosidase assessed as dissociation rate constant (k2) using p-nitrophenol-alpha-D-glucopyranoside as substrate by Lineweaver-Burk plot analysis; assay type: protein assay
Alpha-glucosidase = Alpha-glucosidase (Saccharomyces cerevisiae S288c, UniProt P53341+P38158+P07265); assay: Inhibition of Saccharomyces cerevisiae alpha-glucosidase using p-nitrophenol-alpha-D-glucopyranoside as substrate incubated for 15 mins by spectrophotometric method; assay type: protein assay
[10] = target: T1, Tyrosine-protein phosphatase non-receptor type 1; assay: Inhibition of human GST-tagged PTP1B expressed in Escherichia coli using pNPP as substrate by spectroscopic analysis
[11] = target: T3, Free fatty acid receptor 4; assay: Agonist activity at human GPR120 expressed in CHO cells assessed as intracellular phosphorylated ERK incubated for 16 to 18 hrs by AlphaScreen SureFire assay; assay type: cell-based
[12] = target: T6, Free fatty acid receptor 4 (Mus musculus) (UniProt Q7TMA4); assay: In vivo agonist activity at GPR120 in C57BL/6 mouse assessed as reduction in glucose AUC levels at 30 mg/kg,po and measured upto 120 mins by OGTT test; assay type: functional, organism-based; parameters: scale not given: the % may be the effect or the level left
T6 sequence (whole entry): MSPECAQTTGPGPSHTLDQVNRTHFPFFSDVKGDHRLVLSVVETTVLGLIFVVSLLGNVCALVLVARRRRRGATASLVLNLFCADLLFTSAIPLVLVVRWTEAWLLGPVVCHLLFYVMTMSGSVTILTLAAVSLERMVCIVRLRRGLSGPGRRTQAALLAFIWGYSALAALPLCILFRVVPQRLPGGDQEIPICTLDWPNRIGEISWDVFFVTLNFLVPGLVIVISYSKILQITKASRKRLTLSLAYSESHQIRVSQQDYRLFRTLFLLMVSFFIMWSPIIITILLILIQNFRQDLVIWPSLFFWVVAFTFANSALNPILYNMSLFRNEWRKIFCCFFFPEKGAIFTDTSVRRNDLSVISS

[13] = target: T4, Glucose-dependent insulinotropic receptor; assay: Agonist activity at human GPR119 expressed in HEK293S cells assessed as increase in intracellular cAMP level incubated for 45 mins by HTRF analysis; assay type: cell-based

Question: How did the IC50 [1] turn out when `C[C@H](CCC(=O)O)[C@H]1CCC2C3CC=C4C(C)(C)c5c(cnn5-c5ccc(F)cc5)C[C@]4(C)C3CC[C@@]21C` (stereo not given in full) was run?
Answer: 420 nM

Question: What about the Ki [2] of the same compound?
Answer: 260 nM

Question: And the Ratio IC50 (Homo sapiens)?
Answer: 11

Question: `Oc1cc(Cc2cc(O)c(Br)c(Br)c2Br)c(Br)c(Br)c1O` was tested. Which IC50 [3] did it give?
Answer: 2400 nM

Question: With `Cc1cc(OCc2ccc(C(=O)O)cc2)ccc1/C=C1\SC(=S)N(Cc2ccc(C(=O)O)cc2)C1=O` as the compound, how does the IC50 [3] read?
Answer: 240 nM

Question: Which IC50 (Dipeptidyl peptidase 4 [4]) does the source give for `NNc1nc(NN)nc(N2C(=O)CSC2=O)n1` here?
Answer: 6250 nM

Question: Which EC50 [5] does the source give for `O=C(O)CCCc1ccc(OCC2=C(c3ccc(C4CC4)cc3)CCCC2)cc1` here?
Answer: 50 nM

Question: For `O=c1[nH]ncn1-c1ccc(-c2ccc(N3CCNCC3)nc2)cc1`, which EC50 [6] is on record?
Answer: 2.8 nM

Question: For `Cc1cc(O[C@@H](CCC(F)(F)F)c2ccc(C(=O)NCCC(=O)O)cc2)cc(C)c1-c1ccc(C(C)(C)C)cc1` [ADOMEGLIVANT], which Ki (Glucagon receptor) is on record?
Answer: 6.6 nM

Question: `CC#CCn1c(N2CCC[C@@H](N)C2)cc(=O)n(Cc2nc(C)c3cc(C)ccc3n2)c1=O` was tested. Which IC50 (Dipeptidyl peptidase 4 [7]) did it give?
Answer: 5.78 nM

Question: Which Kdiss [8] does the source give for `Cc1cc2c(c(=O)[nH]1)C(=O)O/C2=C\c1cc(Br)cs1` here?
Answer: 0.22 µM

Question: What about the Kdiss [9] of the same compound?
Answer: 0.25 µM

Question: And the IC50 (Alpha-glucosidase)?
Answer: 240 nM

Question: How did the IC50 [10] turn out when `COc1cc(C(=O)c2c(CBr)cc(OC)c(OC)c2Br)c(Br)c(Br)c1OC` was run?
Answer: 2070 nM

Question: Which IC50 [3] does the source give for `O=c1c2cc(O)c(O)cc2oc2cc(O)cc(O)c12` here?
Answer: 9200 nM

Question: Which IC50 (Dipeptidyl peptidase 4 [7]) does the source give for `CC#CCn1c(N2CCC[C@@H](N)C2)nc2c(C)c(=O)n(Cc3nc(C)c4c(F)cccc4n3)c(=O)n21` here?
Answer: 0.5 nM

Question: What does the source list for `O=C(O)[C@H]1C[C@@H]1CCC12CCC(c3cccc(Oc4ccccc4)c3)(CC1)O2`?
Answer: EC50 [11]: 220 nM; Activity [12]: 60%

Question: Which EC50 [13] does the source give for `CSc1ccc(COc2ccc(-c3ncc(C)c(N4CCN(c5ncc(OCC=C(C)C)cn5)CC4)n3)cc2)cc1` here?
Answer: 24 nM

Question: How did the IC50 (Dipeptidyl peptidase 4 [7]) turn out when `CC#CCn1c(N2CCC[C@@H](N)C2)nc2c(C)c(=O)n(Cc3nc(C)c4c(Cl)cccc4n3)c(=O)n21` was run?
Answer: 0.7 nM
